Reference: PubChem BioAssay (NCI)
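Results reflect a 48-hour exposure of cells in 96-well plates to compound at five concentrations. GI50 is the concentration that inhibits growth by half. The concentration for full growth arrest is given as TGI.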

Columns and labels:
Assay in all cases: NCI tumour cell line growth inhibition, 48 h
HCT-15 colon = tested on: HCT-15 colon
OVCAR-5 ovarian = tested on: OVCAR-5 ovarian
SK-MEL-5 melanoma = tested on: SK-MEL-5 melanoma
SNB-19 CNS = tested on: SNB-19 CNS
SK-MEL-2 melanoma = tested on: SK-MEL-2 melanoma
HL-60(TB) leukemia = tested on: HL-60(TB) leukemia
EKVX NSCLC = tested on: EKVX NSCLC
786-0 renal = tested on: 786-0 renal
HOP-92 NSCLC = tested on: HOP-92 NSCLC
HOP-62 NSCLC = tested on: HOP-62 NSCLC
SF-268 CNS = tested on: SF-268 CNS
HCT-116 colon = tested on: HCT-116 colon
NCI-H522 lung = tested on: NCI-H522 lung
KM12 colon = tested on: KM12 colon
ACHN renal = tested on: ACHN renal
BT-549 breast = tested on: BT-549 breast
HCC-2998 colon = tested on: HCC-2998 colon
DU-145 prostate = tested on: DU-145 prostate
U251 CNS = tested on: U251 CNS
SK-MEL-28 melanoma = tested on: SK-MEL-28 melanoma
HT29 colon = tested on: HT29 colon
LOX IMVI melanoma = tested on: LOX IMVI melanoma
MCF7 breast = tested on: MCF7 breast
IGROV1 ovarian = tested on: IGROV1 ovarian
T-47D breast = tested on: T-47D breast
A498 renal = tested on: A498 renal
TK-10 renal = tested on: TK-10 renal
OVCAR-3 ovarian = tested on: OVCAR-3 ovarian
SR leukemia = tested on: SR leukemia
UO-31 renal = tested on: UO-31 renal
HS 578T breast = tested on: HS 578T breast
NCI/ADR-RES ovarian = tested on: NCI/ADR-RES ovarian
A549 NSCLC = tested on: A549 NSCLC
SF-539 CNS = tested on: SF-539 CNS
NCI-H23 lung = tested on: NCI-H23 lung
OVCAR-4 ovarian = tested on: OVCAR-4 ovarian
MOLT-4 leukemia = tested on: MOLT-4 leukemia
SW-620 colon = tested on: SW-620 colon
SK-OV-3 ovarian = tested on: SK-OV-3 ovarian
UACC-62 melanoma = tested on: UACC-62 melanoma
OVCAR-8 ovarian = tested on: OVCAR-8 ovarian
SN12C renal = tested on: SN12C renal
CCRF-CEM leukemia = tested on: CCRF-CEM leukemia
PC-3 prostate = tested on: PC-3 prostate
NCI-H460 lung = tested on: NCI-H460 lung
NCI-H226 lung = tested on: NCI-H226 lung
MDA-MB-231 breast = tested on: MDA-MB-231 breast
SF-295 CNS = tested on: SF-295 CNS
MALME-3M melanoma = tested on: MALME-3M melanoma
CAKI-1 renal = tested on: CAKI-1 renal
COLO 205 colon = tested on: COLO 205 colon
SNB-75 CNS = tested on: SNB-75 CNS
M14 melanoma = tested on: M14 melanoma
MDA-MB-435 = tested on: MDA-MB-435
UACC-257 melanoma = tested on: UACC-257 melanoma
RPMI-8226 leukemia = tested on: RPMI-8226 leukemia

SMILES: CCOC(=O)c1cc(C(=O)c2cc(OC)c(OC)c(OC)c2)n2nc(C)ccc12
- GI50 (HCT-15 colon): 0.0844 µM
- TGI (HCT-15 colon): > 100 µM
- GI50 (OVCAR-5 ovarian): 0.472 µM
- TGI (OVCAR-5 ovarian): > 100 µM
- GI50 (SK-MEL-5 melanoma): 0.0585 µM
- TGI (SK-MEL-5 melanoma): 3.32 µM
- GI50 (SNB-19 CNS): 0.42 µM
- TGI (SNB-19 CNS): > 100 µM
- GI50 (SK-MEL-2 melanoma): 0.495 µM
- TGI (SK-MEL-2 melanoma): > 100 µM
- GI50 (HL-60(TB) leukemia): 0.16 µM
- TGI (HL-60(TB) leukemia): 0.588 µM
- GI50 (EKVX NSCLC): 0.479 µM
- TGI (EKVX NSCLC): > 100 µM
- GI50 (786-0 renal): 0.335 µM
- TGI (786-0 renal): > 100 µM
- GI50 (HOP-92 NSCLC): 3.52 µM
- TGI (HOP-92 NSCLC): > 100 µM
- GI50 (HOP-62 NSCLC): 0.398 µM
- TGI (HOP-62 NSCLC): > 100 µM
- GI50 (SF-268 CNS): 0.55 µM
- TGI (SF-268 CNS): > 100 µM
- GI50 (HCT-116 colon): 0.164 µM
- TGI (HCT-116 colon): > 100 µM
- GI50 (NCI-H522 lung): 0.171 µM
- TGI (NCI-H522 lung): > 100 µM
- GI50 (KM12 colon): 0.0577 µM
- TGI (KM12 colon): > 100 µM
- GI50 (ACHN renal): 0.524 µM
- TGI (ACHN renal): > 100 µM
- GI50 (BT-549 breast): 0.878 µM
- TGI (BT-549 breast): > 100 µM
- GI50 (HCC-2998 colon): 0.493 µM
- TGI (HCC-2998 colon): > 100 µM
- GI50 (DU-145 prostate): 0.391 µM
- TGI (DU-145 prostate): > 100 µM
- GI50 (U251 CNS): 0.331 µM
- TGI (U251 CNS): > 100 µM
- GI50 (SK-MEL-28 melanoma): 12 µM
- TGI (SK-MEL-28 melanoma): > 100 µM
- GI50 (HT29 colon): 0.133 µM
- TGI (HT29 colon): > 100 µM
- GI50 (LOX IMVI melanoma): 0.498 µM
- TGI (LOX IMVI melanoma): > 100 µM
- GI50 (MCF7 breast): 0.0481 µM
- TGI (MCF7 breast): > 100 µM
- GI50 (IGROV1 ovarian): 0.379 µM
- TGI (IGROV1 ovarian): > 100 µM
- GI50 (T-47D breast): > 100 µM
- TGI (T-47D breast): > 100 µM
- GI50 (A498 renal): 0.0762 µM
- TGI (A498 renal): 0.931 µM
- GI50 (TK-10 renal): > 100 µM
- TGI (TK-10 renal): > 100 µM
- GI50 (OVCAR-3 ovarian): 0.0648 µM
- TGI (OVCAR-3 ovarian): 1.27 µM
- GI50 (SR leukemia): 0.0481 µM
- TGI (SR leukemia): > 100 µM
- GI50 (UO-31 renal): 0.452 µM
- TGI (UO-31 renal): > 100 µM
- GI50 (HS 578T breast): 0.19 µM
- TGI (HS 578T breast): > 100 µM
- GI50 (NCI/ADR-RES ovarian): 0.123 µM
- TGI (NCI/ADR-RES ovarian): 1.93 µM
- GI50 (A549 NSCLC): 0.223 µM
- TGI (A549 NSCLC): > 100 µM
- GI50 (SF-539 CNS): 0.13 µM
- TGI (SF-539 CNS): 0.771 µM
- GI50 (NCI-H23 lung): 0.418 µM
- TGI (NCI-H23 lung): > 100 µM
- GI50 (OVCAR-4 ovarian): 1.72 µM
- TGI (OVCAR-4 ovarian): > 100 µM
- GI50 (MOLT-4 leukemia): 0.396 µM
- TGI (MOLT-4 leukemia): > 100 µM
- GI50 (SW-620 colon): 0.0687 µM
- TGI (SW-620 colon): > 100 µM
- GI50 (SK-OV-3 ovarian): 0.546 µM
- TGI (SK-OV-3 ovarian): > 100 µM
- GI50 (UACC-62 melanoma): 0.0615 µM
- TGI (UACC-62 melanoma): > 100 µM
- GI50 (OVCAR-8 ovarian): 0.518 µM
- TGI (OVCAR-8 ovarian): > 100 µM
- GI50 (SN12C renal): 0.665 µM
- TGI (SN12C renal): > 100 µM
- GI50 (CCRF-CEM leukemia): 0.212 µM
- TGI (CCRF-CEM leukemia): > 100 µM
- GI50 (PC-3 prostate): 0.0939 µM
- TGI (PC-3 prostate): > 100 µM
- GI50 (NCI-H460 lung): 0.133 µM
- TGI (NCI-H460 lung): > 100 µM
- GI50 (NCI-H226 lung): 45 µM
- TGI (NCI-H226 lung): > 100 µM
- GI50 (MDA-MB-231 breast): 0.524 µM
- TGI (MDA-MB-231 breast): > 100 µM
- GI50 (SF-295 CNS): 0.0657 µM
- TGI (SF-295 CNS): > 100 µM

SMILES: CCOC(=O)C1C(c2ccc3c(c2)OCO3)c2c([nH][nH]c2=O)CC1(O)OCC (stereo not drawn)
- TGI (HCT-15 colon): > 100 µM
- TGI (OVCAR-5 ovarian): > 100 µM
- TGI (MALME-3M melanoma): > 100 µM
- TGI (SK-MEL-5 melanoma): > 100 µM
- TGI (SK-MEL-2 melanoma): > 100 µM
- TGI (CAKI-1 renal): > 100 µM
- TGI (HL-60(TB) leukemia): > 100 µM
- TGI (EKVX NSCLC): > 100 µM
- TGI (786-0 renal): > 100 µM
- TGI (HOP-92 NSCLC): > 100 µM
- TGI (HOP-62 NSCLC): > 100 µM
- TGI (SF-268 CNS): > 100 µM
- TGI (HCT-116 colon): > 100 µM
- TGI (NCI-H522 lung): > 100 µM
- TGI (KM12 colon): > 100 µM
- TGI (ACHN renal): > 100 µM
- TGI (COLO 205 colon): > 100 µM
- TGI (HCC-2998 colon): > 100 µM
- TGI (DU-145 prostate): > 100 µM
- TGI (U251 CNS): > 100 µM
- TGI (SK-MEL-28 melanoma): > 100 µM
- TGI (HT29 colon): > 100 µM
- TGI (LOX IMVI melanoma): > 100 µM
- TGI (MCF7 breast): > 100 µM
- TGI (IGROV1 ovarian): > 100 µM
- TGI (T-47D breast): > 100 µM
- TGI (SNB-75 CNS): > 100 µM
- TGI (M14 melanoma): > 100 µM
- TGI (A498 renal): > 100 µM
- TGI (TK-10 renal): > 100 µM
- TGI (OVCAR-3 ovarian): > 100 µM
- TGI (SR leukemia): > 100 µM
- TGI (UO-31 renal): > 100 µM
- TGI (HS 578T breast): > 100 µM
- TGI (NCI/ADR-RES ovarian): > 100 µM
- TGI (A549 NSCLC): > 100 µM
- TGI (SF-539 CNS): > 100 µM
- TGI (NCI-H23 lung): > 100 µM
- TGI (MDA-MB-435): > 100 µM
- TGI (OVCAR-4 ovarian): > 100 µM
- TGI (MOLT-4 leukemia): > 100 µM
- TGI (SW-620 colon): > 100 µM
- TGI (UACC-62 melanoma): > 100 µM
- TGI (OVCAR-8 ovarian): > 100 µM
- TGI (SN12C renal): > 100 µM
- TGI (UACC-257 melanoma): > 100 µM
- TGI (CCRF-CEM leukemia): > 100 µM
- TGI (PC-3 prostate): > 100 µM
- TGI (NCI-H460 lung): > 100 µM
- TGI (RPMI-8226 leukemia): > 100 µM
- TGI (MDA-MB-231 breast): > 100 µM
- TGI (SF-295 CNS): > 100 µM
